13 molecules from ChEMBL document CHEMBL4725229, “Positional Analogue Scanning: An Effective Strategy for Multiparameter Optimization in Drug Design” (J Med Chem, 2020) can be followed below.

Molecules are shown by their SMILES. Activity calls are given as the source filed them. The calls are words filed in the database; no cut-off is given here. Bounds are passed on as bounds.

The target of data set [1] is T1, Sphingosine 1-phosphate receptor 3 (Homo sapiens, UniProt Q99500). The data set is described as follows: Agonist activity at S1P3 (unknown origin) relative to control.
Data set [2] can be described thus: Apparent permeability across apical to basolateral side in pig LLC-PK1 cells. Format: ADME, cell-based, Sus scrofa.
Data set [3] deals with T1, Sphingosine 1-phosphate receptor 3. The data set can be described thus: Agonist activity at S1P3 (unknown origin).
For data set [4], the target named is Sphingosine 1-phosphate receptor 1 (Homo sapiens) (UniProt P21453). The data set is described as follows: Agonist activity at S1P1 (unknown origin) relative to control. The conditions noted are these: filed as agonist.
Sequence of Sphingosine 1-phosphate receptor 1 (Homo sapiens) (P21453 whole entry): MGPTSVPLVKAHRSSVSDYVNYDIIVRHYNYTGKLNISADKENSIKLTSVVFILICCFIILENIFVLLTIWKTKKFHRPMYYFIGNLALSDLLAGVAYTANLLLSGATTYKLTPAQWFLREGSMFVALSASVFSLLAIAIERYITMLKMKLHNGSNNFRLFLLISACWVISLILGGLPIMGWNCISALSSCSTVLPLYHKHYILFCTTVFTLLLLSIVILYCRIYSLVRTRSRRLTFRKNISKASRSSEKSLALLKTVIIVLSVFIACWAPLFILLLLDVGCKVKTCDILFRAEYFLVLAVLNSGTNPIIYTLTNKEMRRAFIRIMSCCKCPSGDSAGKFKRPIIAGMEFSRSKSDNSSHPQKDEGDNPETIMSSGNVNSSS

T1 sequence (Q99500 whole entry): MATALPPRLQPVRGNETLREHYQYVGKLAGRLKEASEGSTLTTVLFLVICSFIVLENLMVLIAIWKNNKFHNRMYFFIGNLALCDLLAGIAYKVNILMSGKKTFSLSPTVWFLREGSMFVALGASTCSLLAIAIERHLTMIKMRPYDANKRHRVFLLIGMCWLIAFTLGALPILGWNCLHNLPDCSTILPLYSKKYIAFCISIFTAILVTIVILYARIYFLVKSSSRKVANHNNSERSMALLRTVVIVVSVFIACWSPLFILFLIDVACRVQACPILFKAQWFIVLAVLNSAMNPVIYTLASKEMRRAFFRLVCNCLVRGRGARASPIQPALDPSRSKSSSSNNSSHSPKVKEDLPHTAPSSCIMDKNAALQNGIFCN

Regarding `Cn1cc(C(=O)Nc2cc(C(F)(F)F)c(-c3ccccc3)cn2)c(=O)c2ccccc21`, the Emax (commonly the greatest response seen or fitted, relative to the assay's reference) in data set [1] is “inactive”. Moreover, in data set [2], the Papp A→B (usually the apparent permeability from the apical to the basolateral side of a cell layer) is less than 1 ×10⁻⁶ cm/s. In data set [3], the EC50 result is on record as “Not Active”. The molecule further registered an Emax in data set [4] of 59%.

With `Cn1cc(C(=O)Nc2ccc(-c3ccccc3)c(C(F)(F)F)c2)c(=O)c2ccccc21`, the figures for the maximal effect (Emax) in data set [1] (filed as agonist) and in data set [4] were 92% and 110%, respectively. Besides, the Papp A→B in data set [2] came to 1.2 ×10⁻⁶ cm/s.

Regarding `Cn1cc(C(=O)Nc2ccc(-c3cccnc3)c(C(F)(F)F)c2)c(=O)c2ccccc21`, in data set [1], the Emax entry was “inactive”. For the same molecule, the Papp A→B in data set [2] came to 18 ×10⁻⁶ cm/s. Also, the EC50 result in data set [3] is “Not Active”. Further, in data set [4], the Emax amounted to 110%.

Turning to `Cn1cc(C(=O)Nc2ccc(-c3ccccn3)c(C(F)(F)F)c2)c(=O)c2ccccc21`, in data set [1], the Emax entry is “inactive”. The Papp A→B in data set [2] amounted to 11 ×10⁻⁶ cm/s. Moreover, the EC50 result in data set [3] is reported as “Not Active”. The molecule also displayed an Emax in data set [4] of 110%.

In the case of `Cn1cc(C(=O)Nc2ccc(-c3ccccc3)c(C(F)(F)F)c2)c(=O)c2ccncc21`, the Emax result in data set [1] was “inactive”. The Papp A→B in data set [2] stood at 3.4 ×10⁻⁶ cm/s. The EC50 result in data set [3] was “Not Active”. For the same molecule, in data set [4], the Emax was found to be 120%.

Consider `Cn1cc(C(=O)Nc2ccc(-c3ccccc3)c(C(F)(F)F)n2)c(=O)c2ccccc21`, for which the Emax result in data set [1] was “inactive”. In addition, the Papp A→B in data set [2] is less than 1 ×10⁻⁶ cm/s. Moreover, the EC50 result in data set [3] was “Not Active”. Also, the Emax in data set [4] stood at 120%.

As for `Cn1cc(C(=O)Nc2ccc(-c3ccccc3)c(C(F)(F)F)c2)c(=O)c2cnccc21`, the Emax result in data set [1] is “inactive”. The Papp A→B in data set [2] was determined as 5.7 ×10⁻⁶ cm/s. Also, in data set [3], the EC50 entry is given as “Not Active”. The same molecule had an Emax in data set [4] of 100%.

Regarding `Cn1cc(C(=O)Nc2ccc(-c3ccccc3)c(C(F)(F)F)c2)c(=O)c2ncccc21`, in data set [1], the Emax entry is “inactive”. Also, the Papp A→B in data set [2] came out at 16 ×10⁻⁶ cm/s. Besides, in data set [3], the EC50 entry is “Not Active”. Further, the Emax in data set [4] was 86%.

Turning to `Cn1cc(C(=O)Nc2ccc(-c3ccccc3)c(C(F)(F)F)c2)c(=O)c2cccnc21`, the Emax result in data set [1] was “inactive”. Moreover, in data set [2], the Papp A→B amounted to 2.2 ×10⁻⁶ cm/s. Besides, in data set [3], the EC50 entry was “Not Active”. In data set [4], this molecule showed an Emax of 100%.

As for `Cn1cc(C(=O)Nc2cnc(-c3ccccc3)c(C(F)(F)F)c2)c(=O)c2ccccc21`, in data set [1], the Emax entry is “inactive”. Further, in data set [2], the Papp A→B came to 11 ×10⁻⁶ cm/s. Besides, in data set [3], the EC50 entry is reported as “Not Active”. Also, the Emax in data set [4] was found to be 170%.

Regarding `Cn1cc(C(=O)Nc2ccc(-c3ccncc3)c(C(F)(F)F)c2)c(=O)c2ccccc21`, in data set [1], the Emax entry is “inactive”. Besides, the Papp A→B in data set [2] worked out at 15 ×10⁻⁶ cm/s. For the same molecule, in data set [3], the EC50 result is “Not Active”. The Emax in data set [4] stood at 110%.

Consider `Cn1cc(C(=O)Nc2ccc(-c3ccccc3)c(C(F)(F)F)n2)c(=O)c2cnccc21`, for which, in data set [1], the Emax result is “inactive”. The Papp A→B in data set [2] amounted to 6.7 ×10⁻⁶ cm/s. Further, the EC50 result in data set [3] is listed as “Not Active”. Also, in data set [4], the Emax was found to be 120%.

With `Cn1nc(C(=O)Nc2ccc(-c3ccccc3)c(C(F)(F)F)c2)c(=O)c2ccccc21`, in data set [1], the Emax entry is “inactive”. Further, in data set [2], the Papp A→B is 2.3 ×10⁻⁶ cm/s. In addition, the EC50 entry in data set [3] is recorded as “Not Active”. The molecule also showed an Emax in data set [4] of 130%.
